# From US9527867B2, “Antibacterial biaromatic derivatives” (Actelion Pharmaceuticals Ltd., priority 2013, dated 2016)
# Columns and labels:
# Assay in all cases: Bacterial growth minimal inhibitory concentration (broth microdilution, CLSI M7-A7)
# Type in all cases: cell-based
# [1] = system: Staphylococcus aureus A798; conditions: Staphylococcus aureus, A798, cation-adjusted Mueller-Hinton Broth, multiply-resistant strain (in particular quinolone-resistant), read-out: MIC for S. aureus A798
# Procedure, shortened: (§1)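 Testing used quinolone-resistant, multiply resistant isolates (S. aureus A798, A. baumannii T6474) plus quinolone-sensitive M. catarrhalis A894 and methicillin-sensitive S. aureus ATCC29213. MICs, in mg/L, came from CLSI M7-A7 microdilution in cation-adjusted Mueller-Hinton broth.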
# [2] = system: Moraxella catarrhalis A894; conditions: Moraxella catarrhalis, A894, cation-adjusted Mueller-Hinton Broth, quinolone-sensitive strain
# Procedure, shortened: as §1
# [3] = system: Enterococcus faecium A949; conditions: Enterococcus faecium, A949, cation-adjusted Mueller-Hinton Broth, multiply-resistant strain (in particular quinolone-resistant), read-out: MIC for E. faecium A949
# Procedure, shortened: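 Broth microdilution after CLSI M7-A7 in cation-adjusted Mueller-Hinton medium gave MIC values in mg/L.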
# [4] = system: Staphylococcus aureus ATCC29213; conditions: Staphylococcus aureus, ATCC29213, cation-adjusted Mueller-Hinton Broth, methicillin-sensitive and quinolone-sensitive strain, read-out: MIC for S. aureus ATCC29213
# Procedure, shortened: as §1
# [5] = system: Acinetobacter baumannii T6474; conditions: Acinetobacter baumannii, T6474, cation-adjusted Mueller-Hinton Broth, multiply-resistant strain (in particular quinolone-resistant)
# Procedure, shortened: as §1
SMILES,MIC [1],MIC [2],MIC [3],MIC [4],MIC [5]
"COc1cccc(-c2cc(CNCC[C@H]3CN(c4ccc5c(n4)NC(=O)CO5)C(=O)O3)cnn2)c1 [Example 105, 6-[(S)-5-(2-{[6-(3-methoxy-phenyl)-pyridazin-4-ylmethyl]-amino}-ethyl)-2-oxo-oxazolidin-3-yl]-4H-pyrido[3,2-b][1,4]oxazin-3-one]",8 µg/mL,0.25 µg/mL,> 8 µg/mL,4 µg/mL,4 µg/mL
"COc1cccc(-c2cc(CNCC[C@@H]3CN(c4ccc5c(c4)NC(=O)CS5)C(=O)O3)ccc2F)c1 [Example 11, 6-((R)-5-{2-[(6-fluoro-3′-methoxy-biphenyl-3-ylmethyl)-amino]-ethyl}-2-oxo-oxazolidin-3-yl)-4H-benzo[1,4]thiazin-3-one]",1 µg/mL,0.125 µg/mL,8 µg/mL,1 µg/mL,2 µg/mL
"COc1cnnc(-c2cccc(CNCC[C@H]3CN(c4ccc5c(c4)NC(=O)CO5)C(=O)O3)c2)c1 [Example 81, 6-((S)-5-{2-[3-(5-methoxy-pyridazin-3-yl)-benzylamino]-ethyl}-2-oxo-oxazolidin-3-yl)-4H-benzo[1,4]oxazin-3-one]",1 µg/mL,0.063 µg/mL,> 8 µg/mL,0.5 µg/mL,1 µg/mL
"N#Cc1cccc(-c2cccc(CNCC[C@H]3CN(c4ccc5c(n4)NC(=O)CO5)C(=O)O3)c2)c1 [Example 40, 3′-({2-[(S)-2-oxo-3-(3-oxo-3,4-dihydro-2H-pyrido[3,2-b][1,4]oxazin-6-yl)-oxazolidin-5-yl]-ethylamino}-methyl)-biphenyl-3-carbonitrile]",0.125 µg/mL,≤ 0.016 µg/mL,2 µg/mL,0.125 µg/mL,0.25 µg/mL
"COc1cc(-c2cccc(CNCC[C@@H]3CN(c4ccc5c(c4)NC(=O)CS5)C(=O)O3)c2)ccc1O [Example 7, 6-((R)-5-{2-[(4′-hydroxy-3′-methoxy-biphenyl-3-ylmethyl)-amino]-ethyl}-2-oxo-oxazolidin-3-yl)-4H-benzo[1,4]thiazin-3-one]",0.5 µg/mL,0.063 µg/mL,4 µg/mL,0.5 µg/mL,1 µg/mL
"N#Cc1cccc(-c2cc(CNCCc3cn(-c4ccc5c(n4)NC(=O)CO5)c(=O)o3)ccn2)c1 [Example 49, 3-[4-({2-[2-oxo-3-(3-oxo-3,4-dihydro-2H-pyrido[3,2-b][1,4]oxazin-6-yl)-2,3-dihydro-oxazol-5-yl]-ethylamino}-methyl)-pyridin-2-yl]-benzonitrile]",2 µg/mL,0.031 µg/mL,8 µg/mL,1 µg/mL,0.5 µg/mL
"N#CC1(COc2cccc(-c3cccc(CNCC[C@H]4CN(c5ccc6c(n5)NC(=O)CO6)C(=O)O4)c3)c2)CCC1 [Example 71, 1-[3′-({2-[(S)-2-oxo-3-(3-oxo-3,4-dihydro-2H-pyrido[3,2-b][1,4]oxazin-6-yl)-oxazolidin-5-yl]-ethylamino}-methyl)-biphenyl-3-yloxymethyl]-cyclobutanecarbonitrile]",1 µg/mL,0.25 µg/mL,8 µg/mL,1 µg/mL,> 8 µg/mL
"N#Cc1cccc(-c2cccc(CNCC[C@@H]3CN(c4ccc5c(c4)NC(=O)CS5)C(=O)O3)c2)n1 [Example 18, 6-[3-({2-[(R)-2-oxo-3-(3-oxo-3,4-dihydro-2H-benzo[1,4]thiazin-6-yl)-oxazolidin-5-yl]-ethylamino}-methyl)-phenyl]-pyridine-2-carbonitrile]",0.25 µg/mL,0.031 µg/mL,4 µg/mL,0.25 µg/mL,0.25 µg/mL
"COc1cc(-c2cccc(CNCC[C@H]3CN(c4ccc5c(n4)NC(=O)CO5)C(=O)O3)c2)cnn1 [Example 59, 6-((S)-5-{2-[3-(6-methoxy-pyridazin-4-yl)-benzylamino]-ethyl}-2-oxo-oxazolidin-3-yl)-4H-pyrido[3,2-b][1,4]oxazin-3-one]",4 µg/mL,0.125 µg/mL,> 8 µg/mL,2 µg/mL,2 µg/mL
"N#Cc1cccc(-c2cc(CNCC[C@H]3CN(c4ccc5c(n4)NC(=O)CO5)C(=O)O3)ccn2)c1 [Example 46, 3-[4-({2-[(S)-2-oxo-3-(3-oxo-3,4-dihydro-2H-pyrido[3,2-b][1,4]oxazin-6-yl)-oxazolidin-5-yl]-ethylamino}-methyl)-pyridin-2-yl]-benzonitrile]",0.5 µg/mL,0.031 µg/mL,2 µg/mL,0.5 µg/mL,0.25 µg/mL
"COc1cnnc(-c2ccnc(CNCC[C@H]3CN(c4ccc5c(n4)NC(=O)CO5)C(=O)O3)c2)c1 [Example 111, (S)-6-(5-(2-(((4-(5-methoxypyridazin-3-yl)pyridin-2-yl)methyl)amino)ethyl)-2-oxooxazolidin-3-yl)-2H-pyrido[3,2-b][1,4]oxazin-3(4H)-one]",0.5 µg/mL,0.031 µg/mL,8 µg/mL,0.25 µg/mL,0.25 µg/mL
"COc1ccnc(-c2cccc(CNCC[C@@H]3CN(c4ccc5c(c4)NC(=O)CS5)C(=O)O3)c2)c1 [Example 14, 6-((R)-5-{2-[3-(4-methoxy-pyridin-2-yl)-benzylamino]-ethyl}-2-oxo-oxazolidin-3-yl)-4H-benzo[1,4]thiazin-3-one]",0.125 µg/mL,≤ 0.016 µg/mL,2 µg/mL,0.125 µg/mL,0.25 µg/mL
"COc1cccc(-c2cccc(CNCC[C@H]3CN(c4ccc5c(c4)NC(=O)CS5)C(=O)O3)c2)n1 [Example 43, 6-((S)-5-{2-[3-(6-methoxy-pyridin-2-yl)-benzylamino]-ethyl}-2-oxo-oxazolidin-3-yl)-4H-benzo[1,4]thiazin-3-one]",0.063 µg/mL,≤ 0.016 µg/mL,2 µg/mL,0.125 µg/mL,0.5 µg/mL
"COc1cnnc(-c2cc(CNCC[C@H]3CN(c4ccc5c(n4)NC(=O)CO5)C(=O)O3)ccc2O)c1 [Example 89, 6-((S)-5-{2-[4-hydroxy-3-(5-methoxy-pyridazin-3-yl)-benzylamino]-ethyl}-2-oxo-oxazolidin-3-yl)-4H-pyrido[3,2-b][1,4]oxazin-3-one]",0.063 µg/mL,≤ 0.016 µg/mL,8 µg/mL,0.063 µg/mL,0.125 µg/mL
"COc1ccc(-c2cccc(CNCC[C@H]3CN(c4ccc5c(n4)NC(=O)CO5)C(=O)O3)c2)nn1 [Example 79, 6-((S)-5-{2-[3-(6-methoxy-pyridazin-3-yl)-benzylamino]-ethyl}-2-oxo-oxazolidin-3-yl)-4H-pyrido[3,2-b][1,4]oxazin-3-one]",0.5 µg/mL,0.063 µg/mL,8 µg/mL,0.5 µg/mL,0.5 µg/mL
"COc1cccc(-c2cccc(CNCC[C@@H]3CN(c4ccc5c(c4)NC(=O)CS5)C(=O)O3)n2)c1 [Example 20, 6-[(R)-5-(2-{[6-(3-methoxy-phenyl)-pyridin-2-ylmethyl]-amino}-ethyl)-2-oxo-oxazolidin-3-yl]-4H-benzo[1,4]thiazin-3-one]",0.25 µg/mL,0.063 µg/mL,1 µg/mL,0.125 µg/mL,0.5 µg/mL
"COCCOc1cccc(-c2cccc(CNCC[C@H]3CN(c4ccc5c(n4)NC(=O)CO5)C(=O)O3)c2)c1 [Example 54, 6-[(S)-5-(2-{[3′-(2-methoxy-ethoxy)-biphenyl-3-ylmethyl]-amino}-ethyl)-2-oxo-oxazolidin-3-yl]-4H-pyrido[3,2-b][1,4]oxazin-3-one]",2 µg/mL,0.125 µg/mL,16 µg/mL,2 µg/mL,8 µg/mL
